Emax data for three molecules are collected here from patent publication US10863742B2, “Herbicide combinations” (Bayer CropScience Aktiengesellschaft, priority 2016, dated 2020).

What all share (assay): Greenhouse early post-emergence weed control trial
What all share (format): in vivo

For one test, the system named is Lolium rigidum (LOLRI). The following applies: 480 h, visual weed control 20 DAA, scale 0-100, early post-emergence BBCH 10-11, g ai/ha: diflufenican 50, pyroxasulfone 25, metribuzin 50, combination 50 + 25 + 50, read-out: % Efficacy against various weeds, LOLRI. Here is the method: (§1) The following data are the results of a greenhouse investigation in which the herbicide combination according to the present invention was tested against various monocotyledonous and dicotyledonous weeds after an early-post emergence application (BBCH 10-11).
(§2) For this early post-emergent trial seeds of the above mentioned species were sown in 7 cm jiffy pots containing standard soil (14.7% sand, 19.9% clay, 65.4% silt and 1.8% organic matter) covered with 0,5 cm depth of sandy soil and lightly irrigated from above. The pots were placed in a glasshouse (with conditions of 16 hour day and 8 hour night, 21° C. day and 12° C. night and 60% relative humidity) and irrigated from above to allow the seeds to germinate and grow. Once they had reached the required growth stage BBCH 10-11 the propagated plants were treated with the herbicides. The herbicides were applied in a spray volume of 300 l water/ha using a flat fan nozzle XR 8001 at a pressure of 1.8 bar. After the application and air drying the pots were placed back into the glasshouse and allowed to grow on. The pots were irrigated via flood irrigation as required for good plant growth.
(§3) Visual percent of weed control (4 replicates) was rated 20 days after herbicide applications (DAA) on a scale of 0-100. A rating of 0 is defined as no control and 100 as complete control.
(§4) According to Colby synergistic effects of herbicidal active ingredients are indicated if the measured efficacy is higher than the expected one calculated according to his formula for 3-way mixtures: E=(A+B+C)−(A×B+A×C+B×C)/100+(A×B×C)/10000

In test [1] the test system is Matricaria inodora (MATIN). The conditions noted are these: Tripleurospermum inodorum, 480 h; visual weed control 20 DAA, scale 0-100, early post-emergence BBCH 10-11; g ai/ha: diflufenican 50, pyroxasulfone 25, metribuzin 50, combination 50 + 25 + 50; read-out: % Efficacy against various weeds, MATIN. Here is the method:
as §1, §2, §3, §4

For the next test, the system named is Veronica persica (VERPE). The conditions noted are these: 480 h, visual weed control 20 DAA, scale 0-100, early post-emergence BBCH 10-11, g ai/ha: diflufenican 50, pyroxasulfone 25, metribuzin 50, combination 50 + 25 + 50, read-out: % Efficacy against various weeds, VERPE. The procedure:
as §1, §2, §3, §4

Test [2] deals with Polygonum convolvulus (POLCO). The following applies: Fallopia convolvulus, 480 h; visual weed control 20 DAA, scale 0-100, early post-emergence BBCH 10-11; g ai/ha: diflufenican 50, pyroxasulfone 25, metribuzin 50, combination 50 + 25 + 50; read-out: % Efficacy against various weeds, POLCO. Here is the method: as §1, §2, §3, §4
The next test relates to Lamium purpureum (LAMPU). The conditions noted are these: 480 h, visual weed control 20 DAA, scale 0-100, early post-emergence BBCH 10-11, g ai/ha: diflufenican 50, pyroxasulfone 25, metribuzin 50, combination 50 + 25 + 50, read-out: % Efficacy against various weeds, LAMPU. Here is the method:
as §1, §2, §3, §4

In test [3] the test system is Pharbitis purpurea (PHBPU). The following applies: Ipomoea purpurea, 480 h; visual weed control 20 DAA, scale 0-100, early post-emergence BBCH 10-11; g ai/ha: diflufenican 50, pyroxasulfone 25, metribuzin 50, combination 50 + 25 + 50; read-out: % Efficacy against various weeds, PHBPU. Here is the method:
as §1, §2, §3, §4

`O=C(Nc1ccc(F)cc1F)c1cccnc1Oc1cccc(C(F)(F)F)c1` [Diflufenican, diflufenican]: the Emax was 2% in the test on Lolium rigidum (LOLRI); 1% in test [1]; 18% in the test on Veronica persica (VERPE); 13% in test [2]; 10% in the test on Lamium purpureum (LAMPU); 18% in test [3].

Regarding `CSc1nnc(C(C)(C)C)c(=O)n1N` [Metribuzin, metribuzin], the Emax with Lolium rigidum (LOLRI) turned out to be 6%; in test [1] it was 59%; in the test with Veronica persica (VERPE), 70%; in test [2], 1%; in the test with Lamium purpureum (LAMPU), 95%; in test [3], 5%.

On to `Cn1nc(C(F)(F)F)c(CS(=O)(=O)C2=NOC(C)(C)C2)c1OC(F)F` [Pyroxasulfon, pyroxasulfone], for which the Emax turned out to be 29% in the test with Lolium rigidum (LOLRI); 5% in test [1]; 5% in the test on Veronica persica (VERPE); 0% in test [2]; 5% in the test with Lamium purpureum (LAMPU); 10% in test [3].
